Measured values reported in patent US6462086B1, “Non-malignant disease treatment with Ras antagonists” (Ramot University Authority for Applied Research and …, priority 1999, dated 2002).
“Also recorded” adds a separate entry of the source.

Experiments:
[1] = system: EAN in Lewis rats; experiment: Experimental autoimmune neuritis (EAN) in Lewis rats, clinical score and rotarod; assay type: in vivo, rat
[2] = system: splenocytes from ICR mice; assay type: cell-based, mouse; conditions: 10 and 50 μM FTS
Procedure: An examination was made as to whether the effect of FTS on Ras levels was of functional importance in splenocytes prepared from 2 ICR mice. Stimulation of ^3H-thymidine incorporation into DNA was used as measure of splenocyte proliferation in the presence of lipopolysaccharide (LPS) or concanavalin A (ConA), and in the presence of 0, 10 and 50 μM FTS. The methods used are detailed below. […] Also, FTS had no effect on basal ^3H-thymidine incorporation into DNA. The concentrations of FTS at which inhibition of lymphocyte cell growth were observed reflect expected levels of the drug when given in animals at doses of 5-10 mg/kg.
Mice were killed by cervical dislocation and spleens removed with sterile precautions and placed in disposable plastic Petri dishes containing Dulbecco's phosphate-buffered saline (DPBS). […] Cells from each microculture were harvested on fibroglass filters with multiharvester and counted in liquid scintillation β counter.
Mitogens and antigens were diluted to appropriate concentrations in the incubation medium and added to the wells at the beginning of incubation period to give a final concentration of 1.0 μg/ml lipopolysaccharide (LPS), 1.0 μg/ml Concanavalin A (ConA) or 10 μg/ml beta2-Glycoprotein I (beta2-GPI). Spontaneous proliferation (without mitogen or antigen) was also assessed. […]
The results are expressed as the mean value of stimulation index per group. […]

[3] = system: lymphocytes from draining lymph nodes of EAE SJL mice; experiment: Ex vivo proliferative responses of lymph node lymphocytes from FTS-treated EAE mice; assay type: in vivo, mouse; conditions: for proliferative response of lymphocytes (cpm): FTS 5 mg/Kg i.p. daily, day 10
[4] = system: lymphocytes from naive SJL mice; experiment: ConA- and LPS-induced proliferation of lymphocytes from naive SJL mice in vitro (3H-thymidine); assay type: cell-based; conditions: Mus musculus, Lymphocyte, 48 h stimulation
[5] = system: MRL/lpr mice; experiment: Grip strength test (hang time) in MRL mice; assay type: in vivo, mouse
Procedure: The four groups of mice were examined weekly using the grip strength test. Muscle strength was measured by the number of seconds the mouse was able to hang suspended on a stationary bar. A neurologically normal mouse is able to remain suspended (hang time) for 30 seconds or longer (17).

[6] = system: MRL/lpr and MRL/++ mice; assay type: in vivo; conditions: FTS 5 mg/Kg/day
Procedure: FTS was synthesized as previously described (13). FTS was stored in chloroform, which was evaporated under a stream of nitrogen immediately before use. The powder was dissolved in absolute ethanol and diluted to the desired concentration in sterile saline made basic with NaOH. 200 μl of carrier solution containing 100 μg of FTS (5 mg/kg) were injected intraperitoneally (i.p.) into each mouse. Control solution was prepared at the same time starting with a chloroform solution.
Mice were treated once a day, 3-5 times a week starting from 6 or 10 weeks of age until 18 weeks of age.
Proteinuria was normalized in FTS-treated MRL/lpr mice as were grip strength and certain aspects of behavior in the open field.

[7] = system: carotid balloon injury in Wistar rats; experiment: Rat carotid balloon injury, intimal hyperplasia (morphometry); assay type: in vivo
Procedure: Group A: Four rats received daily intraperitoneal injections of FTS (5 mg/Kg) starting from the day of injury induction until sacrifice, 14 days later.
Group B: Four rats received daily intraperitoneal injections of control vehicle starting from the day of injury induction until sacrifice, 14 days later.
Animals were anesthetized by intraperitoneal injection of Ketamin (80 mg/Kg) and Xylazine (5 mg/Kg). […] Briefly, a balloon catheter (2F Fogarty) was passed through the external carotid into the aorta; the balloon was inflated with sufficient water to distend the common carotid artery and then pulled back to the external carotid. This procedure was repeated three times, and then the catheter was removed. After 14 days, the animals were sacrificed and the right and left carotid arteries were taken out and fixed in 4% paraformaldehyde until embedding in Paraffin. The arteries were cut in 10 um sections and stained with H&E and computer-assisted morphometric analyses were performed. The tested parameters were: intimal area, medial area, intimal/medial ratio and lumen area. Additionally, the %CSAN-N (% cross sectional area neointimal-neointamal) was calculated [IEL area-Lumen area]×100/IEL (a measure of the degree to which the IEL area is reduced by neointimal with greater normalization of the effect of changes in vessel wall size. Vasular remodeling process were further evaluated by computing the amount of plaque relative to the EEL (external elastic lamina) area.

[8] = FTS 5 mg/kg/day i.p. days 0-10 only
[9] = FTS-treated mice compared to controls

In the case of CC(C)=CCC/C(C)=C/CC/C(C)=C/CSc1ccccc1C(=O)O [FTS, farnesyl thiosalicylic acid], the recovery [1, 8] is reported as “recovered faster than the other groups”, the severity of disease [1, 8] is reported as “equal severity to controls” and the “clinical score / rotarod, peak of disease” value ([1]; FTS 5 mg/kg/day i.p. days 0-28) is reported as “significantly ameliorated the peak of disease”. For the same compound, the “rats with brief relapses of clinical signs during recovery” value ([1]; FTS days 0-10 only) was “Three of the 5 rats”, the recovery ([1]; treatment from day 10) was “recovered significantly faster” and the “Mean clinical scores for days 15-19” value ([1]; treatment from day 10, ±SE, n=10, control 4.12±0.61) was 2.74±0.66. For the same compound, the “LPS and ConA induced splenocyte proliferation (stimulation index)” value [2] was “significant reduction”, the “basal 3H-thymidine incorporation into DNA” value [2] was “no effect” and the “change of reactivity to ConA” value [3, 9] was “no change of reactivity”. For the same compound, the “decrease in the reactivity of lymphocytes to GMBP” value [3, 9] was 83%, the “decrease in the reactivity of lymphocytes to PLP-peptide” value [3, 9] was 72% and the “decrease of the reactivity to PPD and to LPS” value [3, 9] was 50-57%. For the same compound, the “proliferative response of lymphocytes (cpm)” value (“proliferative response” for short) ([3]; antigen: GMBP) was 7,864 ± 636 cpm, the “stimulation index (S.I.)” value ([3]; antigen: GMBP, FTS-treated EAE mice) was 1.8 and the “proliferative response” value ([3]; antigen: PLP) was 8,901 ± 2,014 cpm. For the same compound, the “stimulation index (S.I.)” value ([3]; antigen: PLP, FTS-treated EAE mice) was 2.1, the “proliferative response” value ([3]; antigen: PPD) was 27,342 ± 3,627 cpm and the “stimulation index (S.I.)” value ([3]; antigen: PPD, FTS-treated EAE mice) was 6.4. The “proliferative response” value ([3]; antigen: none) was 4,266 ± 508 cpm, the “reduction in response to myelin specific antigens” value ([3]; ex vivo, FTS-treated EAE mice) was over 78% and the “proliferative response” value ([3]; mitogen: ConA) was 86,870 ± 7,483 cpm. For the same compound, the “stimulation index (S.I.)” value ([3]; mitogen: ConA, FTS-treated EAE mice) was 20.4, the “proliferative response” value ([3]; mitogen: LPS) was 45,196 ± 4,246 cpm and the “stimulation index (S.I.)” value ([3]; mitogen: LPS, FTS-treated EAE mice) was 10.6. It also gave an inhibition at 12.5 µM ([4]; 12.5 μM FTS) of 22 to 50%, an inhibition at 25 µM ([4]; 25 μM FTS) of 66 to 71% and an inhibition at 50 µM ([4]; 50 μM FTS) of 95 to 98%. For the same compound, the “grip strength (hang time on a horizontal bar)” value ([5]; MRL/++ mice) was “trend for FTS to impair performance”, the “grip strength (hang time on a horizontal bar)” value ([5]; MRL/lpr mice, 12-17 weeks of age) was “significantly impaired in this test from week 14 compared to the FTS-treated group; also recorded: normalized” and the toxicity [6] was “no significant toxicity”. The “reduction of intimal area” value ([7]; FTS 5 mg/Kg i.p. daily 14 days vs control) was 76%, the medial area ([7]; FTS 5 mg/Kg i.p. daily 14 days, control 1.2±0.14) was 0.91 mm^2 and the Intimal area ([7]; FTS 5 mg/Kg i.p. daily 14 days, control 1.61) was 0.38 mm^2. For the same compound, the luminal area ([7]; FTS 5 mg/Kg i.p. daily 14 days, control 2.30) was 1.45±0.34 mm^2 and the “%CSAN-N” value ([7]; FTS 5 mg/Kg i.p. daily 14 days, control 52.4±7.4) was 15.5±4.3%.
